Data from patent publication US20170362609A1, “[…] NANOPARTICLES FOR CODELIVERY OF WATER-INSOLUBLE SMALL MOLECULES AND RNAi” (Massachusetts Institute of Technology, priority 2016, published 2017).

Legend:
[1] = system: A2780 cells; assay: MTT cytotoxicity; type: cell-based; conditions: platinum concentration
[2] = system: BCL-2 siRNA; assay: Double-stranded siRNA binding with platinum species by AAS; conditions: by 3 h of incubation
Description: A double-stranded RNA (sense: […]-ATT; antisense: […]-[…]) was mixed with OxaPt(II) at a molar ratio of 1:10 in RNAase free water (RNA final concentration: 5 μM; Pt final concentration at 50 μM; total volume of 100 μL). […] The RNA was then isolated using a centrifugation separation device (molecular cut-off 3000 Da, spun at 10,000 rpm; Nanosep®3k, Pall Corporation, USA). Five wash cycles with RNAase free water (5×100 μL) then ensued. An aliquot of 2 μL from each sample was obtained for optical density (OD) measurements in order to quantify the concentration of RNA in the original sample, using a NanoDrop reader. The remainder of each sample was diluted in 3% HNO3 for Pt content measurement via AAS. The experiments were performed in triplicate and data are presented such that the concentration of Pt-RNA adducts at each time point are expressed as “μmol Pt/μmol RNA”. Analogous methods were employed to obtain similar values for the numbers of Pt-RNA adducts formed by the reaction of siRNA with OxaPt(IV), CisPt(II) or CisPt(IV) at similar time points.
MALDI/TOF MS was used to ascertain the kinetics of platinum-RNA adduct formation using BCL-2 siRNA that was incubated with a 10-fold excess of various platinum(II) or platinum(IV) species. […]

[3] = system: 5′-GMP; assay: 5′-GMP binding with platinum species by 1HNMR
Description: The binding kinetics of 5′-GMP to each platinum species were determined by measuring the relative amounts of free and Pt-bound 5′-GMP at each time point, integrating the ratio of the ^1HNMR peaks at 8.5 ppm to 8.09 ppm.

[4] = system: A2780DDP cells; assay: MTT cytotoxicity; type: cell-based; conditions: platinum concentration
[5] = system: OVCAR4 cells; assay: MTT cytotoxicity; type: cell-based; conditions: platinum concentration
[6] = system: MCF-7 cells; assay: Pt-DNA adducts in cells; type: cell-based; conditions: 24 h after treatment
Description: FIG. 19B is a bar graph showing the total number of Pt-DNA adducts (pg Pt/μg DNA) as assessed after 24 h of incubation with each treatment group, as defined in the description of FIG. 19A. DNA was isolated after cellular lysis and the content of DNA-bound Pt was determined by ICP-MS. Experiments were performed in triplicate. […] IC50 values were derived from three independent experiments each with four technical replicates per condition. […] In all cases, significance is defined as *p<0.05, **p<0.01, and ***p<0.001.
Atomic absorption spectroscopy (generation 8.0, Perkin Elmer) was used to study the kinetics of siRNA platination and to determine the platinum content in all micellar formulations. Inductively coupled plasma mass spectrometry (ICP-MS, Xseries II, Thermo scientific, USA) was used for quantitative determination of trace levels of platinum in cancer cells and to quantify Pt-DNA adduct formation. Sizes and distributions of micelles were determined by dynamic light scattering (DLS) with a vertically polarized He—Ne laser (DAWN EOS, Wyatt Technology, USA). The size and morphologies of the micelles very visualized using a JEOL JEM-1011 electron microscope. Particle size and zeta potential measurements were conducted on a Malvern Zetasizer Nano ZS90. Micelles were prepared by directly dissolving various modified triblock copolymers in water at 0.5 mg/mL.

[7] = system: MCF-7 cells; assay: Intracellular platinum uptake; type: cell-based
Description: FIG. 19A is a bar graph showing platinum uptake (μg Pt/cell) for various compositions. […] Experiments were performed in triplicate. […] IC50 values were derived from three independent experiments each with four technical replicates per condition.
MCF-7 cells were seeded in 12-well plates at a density of 10^5 cells per well and incubated overnight in 1 mL of DMEM containing 10% FBS. […]

[8] = system: MCF-7 cells; assay: MTT cytotoxicity; type: cell-based; conditions: platinum concentration, siRNA 100 nM
Description: In vitro Cytotoxicity Measurements. MCF-7 cells were seeded in 96-well plates at a density of 1×10^4 cells/well. 100 μL of DMEM supplemented with 10% FBS were added to each well and the cells were incubated at 37° C. for 24 h. […] All experiments were conducted in triplicate.

[9] = system: BCL-2 siRNA; assay: siRNA binding with platinum species by MALDI-TOF-MS; conditions: 10-fold excess of platinum
Description: The reaction mixture was placed in a 37° C. incubator and 10 μL of sample were removed at various time points to obtain MALDI-TOF-MS spectra (positive model).

SMILES	IC50 [1] [µM]	siRNA transcripts platinated [2] [%]	DACHPt(5′-GMP)2 adducts, share of the 5′-GMP pool ([3]; 30 m incubation, 10 mM 5′-GMP, 5 mM Pt, 37° C.)	DACHPt(5′-GMP)2 adducts, share of the total 5′-GMP pool ([3]; over the first 6 h, 10 mM 5′-GMP, 5 mM Pt, 37° C.) [%]	IC50 [4] [µM]	IC50 [5] [µM]	Pt-DNA adducts After 24 h [6] [ng Pt/μg DNA]	Platinum uptake 1 h ([7]; 1 h)	Platinum uptake 4 h ([7]; 4 h)	IC50 [8] [µM]	time at which Pt-siRNA adducts could be detected [9]	formation of Pt(NH3)2(5′-GMP)2 adducts ([3]; data not shown)
O=C1[O][Pt]2([NH][C@@H]3CCCC[C@H]3[NH]2)[O]C1=O [OxaPt(II), Oxaliplatin]	2.9 ± 0.28	> 50	approximately 10%	> 40	18.8 ± 0.99	15.5 ± 0.5	41.10 ± 9.84	369 ± 24 pg Pt/cell (×10^−4)	535 ± 16 pg Pt/cell (×10^−4)	23.1 ± 0.25	1 h	–
N.N.[Cl][Pt][Cl] [CisPt(II), cisplatin]	–	–	–	–	–	–	–	–	–	–	≤ 30 m	Similarly rapid formation and time dependent increases
